Reference: patent US9987276B2 (Celgene CAR LLC, priority 2008, dated 2018)
Entries after “also recorded” stand apart in the source; their conditions may differ.

Tests used:
BMX = BMX (Homo sapiens (Human), UniProt P51813); assay: Omnia assay for potency assessment against active forms of BMX kinase; assay type: biochemical; conditions: [BMX]=2.5 nM, [ATP]=100 μM, [Y5-Sox]=7.5 μM; read-out: BMX Inhibition
Experimental: Briefly, 10× stocks of EGFR-WT (PV3872) from Invitrogen and EGFR-T790M/L858R (40350) from BPS Bioscience, San Diego, Calif., 1.13×ATP (AS001A) and appropriate Tyr-Sox conjugated peptide substrates (KCZ1001) were prepared in 1× kinase reaction buffer consisting of 20 mM Tris, pH 7.5, 5 mM MgCl2, 1 mM EGTA, 5 mM β-glycerophosphate, 5% glycerol (10× stock, KB002A) and 0.2 mM DTT (DS001A).
This example describes continuous-read kinase assays to measure inherent potency of compound against active forms of BMX enzymes as described in Example 251 above except that the modified BMX-optimized reagent conditions are:
[BMX]=2.5 nM, [ATP]=100 μM, [Y5-Sox]=7.5 μM (ATP KMapp=107 μM).

EGFR T790M = EGFR T790M (Homo sapiens (Human), UniProt P00533, T790M); assay: EGFR mutant T790M inhibition assay; assay type: biochemical
Experimental: The Omnia Assay Protocol for potency assessment against EGFR is performed as described in Example 251 above except that the EGFR-WT- and EGFR T790M/L858R-modified optimized reagent conditions are: […]

Erbb4 kinase domain = Erbb4 kinase domain (Homo sapiens (Human), UniProt Q15303); assay: Mass spectrometry for ERBB4; assay type: binding; conditions: 60 minutes at 10-fold excess of compound
Experimental: Erbb4 kinase domain (Upstate) was incubated with compound for 60 minutes at 10-fold excess of compound I-4 and I-11 to protein. 1 μl aliquots of the samples (total volume of 4.24 ul) were diluted with 10 μl of 0.1% TFA prior to micro C4 ZipTipping directly onto the MALDI target using Sinapinic acid as the desorption matrix (10 mg/ml in 0.1% TFA:Acetonitrile 50:50). For intact protein mass measurement the instrument was set in Linear mode using a pulsed extraction setting of 16,952 for the myoglobin standard used to calibrate the instrument (Shimadzu Axima TOF^2).
Intact ErbB4 protein occurs at MH+ of 35850 with corresponding sinapinic (matrix) adducts occurring about 200 Da higher. A stochiometric incorporation of the test compound (I-4 and I-11) (Mw of 410 Da) produced a new mass peak which is approximately 410 Da higher (MH+ of 36260).

BTK [1] = biological target: T1, BTK (Homo sapiens (Human), UniProt Q06187); assay: Omnia assay for potency assessment against BTK; assay type: biochemical; conditions: [BTK]=5 nM, Omnia assay; read-out: BTK Inhibition (IC50)
Experimental: The modified BTK-optimized reagent conditions for the above protocol are:
[BTK]=5 nM, [ATP]=[…], [Y5-Sox]=[…] (ATP KMapp˜[…]).

JAK3 kinase = JAK3 kinase (Homo sapiens (Human), UniProt P52333); assay: Mass spectrometry for Janus-3 kinase (JAK3); assay type: binding; conditions: 3 hrs at 10× excess, tryptic digest
Experimental: JAK3 kinase (33 pmols; Invitrogen) was incubated with (I-7) (327 pmols) for 3 hrs at 10× excess prior to tryptic digestion. Iodoacetamide was used as the alkylating agent after compound incubation. For tryptic digests a 5 ul aliquot (5.5 pmols) was diluted with 15 ul of 0.1% TFA prior to micro C18 Zip Tipping directly onto the MALDI target using alpha cyano-4-hydroxy cinnamic acid as the matrix (5 mg/ml in 0.1% TFA:Acetonitrile 50:50).
As depicted in FIG. 11, the expected peptide ([…]) to be modified was immediately evident as the largest peak at MH+ of 1725.88. This is the mass to be expected when compound I-7, with an adduct mass of 345.16, is added to the peptide mass of 1380.70. […] There was also evidence for a number of other modified peptides, however, their signals were low.
To further verify the presence of the modified peptides with compound I-7, the peptides at MH+ of 1725.88 and 1118.55 were subjected to PSD (MS/MS) analysis. A correlational analysis with the homosapien database identified the correct peptides as being modified by I-7.
For tryptic digests the instrument was set in Reflectron mode with a pulsed extraction setting of 2200. Calibration was done using the Laser Biolabs Pep Mix standard ([…], 1296.69, 1672.92, 2093.09, 2465.20). […]

PG-PS arthritis model = assay type: in vivo; conditions: female Lewis rats, oral gavage daily through day 22
Experimental: On day 0, female Lewis rats received an intraperitoneal (IP) bolus of peptidoglycan-polysaccharide (PG-PS) in an amount of 15 μg/g rat body weight. Baseline control rats received an IP bolus of PBS. The vehicle and treatment groups were dosed via oral gavage just prior to PG-PS administration. Treatment with vehicle and compound continued each day through day 22. Maximal lateral ankle width measurements of both rear limbs were collected with a caliper throughout the study. On day 23, study was terminated and the final change in ankle swelling was calculated and compared to vehicle controls.

[2] = tested on: TI-2 independent B cell activation; assay: In vivo thymus-independent (TI-2) B cell activation; conditions: C57/B6 mice, 100 mg/kg daily day 0 through 5, TNP-Ficoll, serum day 6
BTK [3] = biological target: T1, BTK; assay: Mass spectrometry for BTK (intact protein); assay type: binding; conditions: 1 hr, 10× fold excess of compound
Experimental: Intact BTK was incubated for 1 hr at a 10× fold excess of I-7 to protein. Aliquots (2 μl) of the samples were diluted with 10 μl of 0.1% TFA prior to micro C4 ZipTipping directly onto the MALDI target using Sinapinic acid as the desorption matrix (10 mg/ml in 0.1% TFA:Acetonitrile 20:80).

BTK [4] = biological target: T1, BTK; assay: Washout experiment with I-7 and probe compound I-215 in Ramos cells; assay type: cell-based; conditions: 0.1 μM for 1 hour
[5] = Collagen antibody induced arthritis model; assay type: in vivo; conditions: Dose 30 mg/kg
Experimental: On day 0 baseline footpad measurements were made and animals were distributed to the experimental groups in such a way as to generate groups with no significant differences between the groups. Each animal was then inoculated intravenously with 2 mg Arthritomab monoclonal antibody cocktail. Treatment with test agents began at this time. On day 6, each animal was injected intraperitoneally with 50 μg LPS in 200 μl of sterile PBS. Footpad measurements and clinical scoring were conducted on days 6, 7, 8, 9, 10, 11, 12, 14, 18, and 21.

T1 sequence (Q06187 whole entry): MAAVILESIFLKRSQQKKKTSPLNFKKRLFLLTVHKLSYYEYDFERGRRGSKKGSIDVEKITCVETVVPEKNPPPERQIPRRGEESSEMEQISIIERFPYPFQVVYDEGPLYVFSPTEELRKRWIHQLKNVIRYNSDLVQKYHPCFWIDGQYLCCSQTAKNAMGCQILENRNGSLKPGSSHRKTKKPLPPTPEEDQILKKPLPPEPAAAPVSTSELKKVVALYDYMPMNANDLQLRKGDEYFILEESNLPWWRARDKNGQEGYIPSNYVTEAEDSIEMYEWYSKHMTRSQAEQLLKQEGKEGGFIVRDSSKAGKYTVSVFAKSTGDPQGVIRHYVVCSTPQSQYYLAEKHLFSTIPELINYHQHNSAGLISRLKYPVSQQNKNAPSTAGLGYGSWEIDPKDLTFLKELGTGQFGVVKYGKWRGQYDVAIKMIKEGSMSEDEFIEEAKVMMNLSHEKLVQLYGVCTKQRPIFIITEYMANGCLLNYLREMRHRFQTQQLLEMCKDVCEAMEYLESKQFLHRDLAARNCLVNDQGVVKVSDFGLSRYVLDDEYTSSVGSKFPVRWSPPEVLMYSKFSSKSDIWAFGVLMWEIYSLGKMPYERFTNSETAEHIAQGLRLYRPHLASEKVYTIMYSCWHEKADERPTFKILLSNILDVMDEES
Chain of JAK3 kinase (P52333 whole entry): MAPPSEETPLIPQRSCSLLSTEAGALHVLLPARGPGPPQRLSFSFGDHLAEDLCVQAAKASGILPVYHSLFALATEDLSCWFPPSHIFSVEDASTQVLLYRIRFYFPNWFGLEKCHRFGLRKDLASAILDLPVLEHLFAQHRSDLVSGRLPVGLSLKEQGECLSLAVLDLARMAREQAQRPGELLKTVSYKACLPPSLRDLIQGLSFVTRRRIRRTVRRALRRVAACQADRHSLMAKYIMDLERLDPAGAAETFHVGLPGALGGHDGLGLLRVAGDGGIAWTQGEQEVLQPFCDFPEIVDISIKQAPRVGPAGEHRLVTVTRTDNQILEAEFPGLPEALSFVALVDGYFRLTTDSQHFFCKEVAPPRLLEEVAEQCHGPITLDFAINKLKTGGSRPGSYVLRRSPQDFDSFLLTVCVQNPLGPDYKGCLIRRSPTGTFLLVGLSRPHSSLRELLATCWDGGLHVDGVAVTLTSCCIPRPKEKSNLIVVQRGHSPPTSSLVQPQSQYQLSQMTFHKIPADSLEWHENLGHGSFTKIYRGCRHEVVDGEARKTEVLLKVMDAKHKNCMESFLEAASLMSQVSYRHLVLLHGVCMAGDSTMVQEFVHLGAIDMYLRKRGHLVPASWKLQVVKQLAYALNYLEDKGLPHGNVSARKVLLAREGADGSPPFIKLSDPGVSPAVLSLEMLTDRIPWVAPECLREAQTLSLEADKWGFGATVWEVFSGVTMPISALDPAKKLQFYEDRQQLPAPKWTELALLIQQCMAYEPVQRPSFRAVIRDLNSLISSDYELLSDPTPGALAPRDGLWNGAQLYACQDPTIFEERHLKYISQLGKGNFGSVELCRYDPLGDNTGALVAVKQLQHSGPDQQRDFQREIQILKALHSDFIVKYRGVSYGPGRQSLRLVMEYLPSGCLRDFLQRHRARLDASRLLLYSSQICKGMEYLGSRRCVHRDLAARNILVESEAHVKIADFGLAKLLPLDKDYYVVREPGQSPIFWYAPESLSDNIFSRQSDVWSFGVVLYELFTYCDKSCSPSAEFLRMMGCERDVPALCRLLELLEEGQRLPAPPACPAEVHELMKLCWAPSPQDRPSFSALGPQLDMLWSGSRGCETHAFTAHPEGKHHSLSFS
Chain of BMX (P51813 whole entry): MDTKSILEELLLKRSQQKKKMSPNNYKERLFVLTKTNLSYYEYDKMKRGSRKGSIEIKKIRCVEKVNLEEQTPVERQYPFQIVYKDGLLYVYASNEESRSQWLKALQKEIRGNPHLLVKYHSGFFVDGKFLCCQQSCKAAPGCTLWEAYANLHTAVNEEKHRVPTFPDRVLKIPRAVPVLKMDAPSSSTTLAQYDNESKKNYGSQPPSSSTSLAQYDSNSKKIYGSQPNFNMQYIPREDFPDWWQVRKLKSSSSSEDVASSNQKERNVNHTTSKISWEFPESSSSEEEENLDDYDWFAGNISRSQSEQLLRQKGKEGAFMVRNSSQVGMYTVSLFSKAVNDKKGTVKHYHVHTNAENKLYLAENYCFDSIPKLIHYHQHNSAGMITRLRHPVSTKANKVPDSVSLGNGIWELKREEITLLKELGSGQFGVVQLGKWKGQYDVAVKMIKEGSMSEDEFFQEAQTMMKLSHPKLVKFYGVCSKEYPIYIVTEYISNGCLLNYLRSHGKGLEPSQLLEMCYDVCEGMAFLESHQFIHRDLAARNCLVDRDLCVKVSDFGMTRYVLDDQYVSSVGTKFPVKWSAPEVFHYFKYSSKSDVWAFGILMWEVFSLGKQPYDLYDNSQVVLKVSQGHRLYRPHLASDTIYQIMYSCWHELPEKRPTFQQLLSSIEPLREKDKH
Chain of Erbb4 kinase domain (Q15303 718-985): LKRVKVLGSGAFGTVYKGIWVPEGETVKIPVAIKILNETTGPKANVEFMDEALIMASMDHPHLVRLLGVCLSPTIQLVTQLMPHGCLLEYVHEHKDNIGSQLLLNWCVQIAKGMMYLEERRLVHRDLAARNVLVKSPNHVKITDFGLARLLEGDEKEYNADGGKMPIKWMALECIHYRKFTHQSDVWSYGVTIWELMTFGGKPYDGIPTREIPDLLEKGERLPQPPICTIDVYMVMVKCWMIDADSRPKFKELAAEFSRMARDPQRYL
Chain of EGFR T790M (P00533 25-1210 T790M): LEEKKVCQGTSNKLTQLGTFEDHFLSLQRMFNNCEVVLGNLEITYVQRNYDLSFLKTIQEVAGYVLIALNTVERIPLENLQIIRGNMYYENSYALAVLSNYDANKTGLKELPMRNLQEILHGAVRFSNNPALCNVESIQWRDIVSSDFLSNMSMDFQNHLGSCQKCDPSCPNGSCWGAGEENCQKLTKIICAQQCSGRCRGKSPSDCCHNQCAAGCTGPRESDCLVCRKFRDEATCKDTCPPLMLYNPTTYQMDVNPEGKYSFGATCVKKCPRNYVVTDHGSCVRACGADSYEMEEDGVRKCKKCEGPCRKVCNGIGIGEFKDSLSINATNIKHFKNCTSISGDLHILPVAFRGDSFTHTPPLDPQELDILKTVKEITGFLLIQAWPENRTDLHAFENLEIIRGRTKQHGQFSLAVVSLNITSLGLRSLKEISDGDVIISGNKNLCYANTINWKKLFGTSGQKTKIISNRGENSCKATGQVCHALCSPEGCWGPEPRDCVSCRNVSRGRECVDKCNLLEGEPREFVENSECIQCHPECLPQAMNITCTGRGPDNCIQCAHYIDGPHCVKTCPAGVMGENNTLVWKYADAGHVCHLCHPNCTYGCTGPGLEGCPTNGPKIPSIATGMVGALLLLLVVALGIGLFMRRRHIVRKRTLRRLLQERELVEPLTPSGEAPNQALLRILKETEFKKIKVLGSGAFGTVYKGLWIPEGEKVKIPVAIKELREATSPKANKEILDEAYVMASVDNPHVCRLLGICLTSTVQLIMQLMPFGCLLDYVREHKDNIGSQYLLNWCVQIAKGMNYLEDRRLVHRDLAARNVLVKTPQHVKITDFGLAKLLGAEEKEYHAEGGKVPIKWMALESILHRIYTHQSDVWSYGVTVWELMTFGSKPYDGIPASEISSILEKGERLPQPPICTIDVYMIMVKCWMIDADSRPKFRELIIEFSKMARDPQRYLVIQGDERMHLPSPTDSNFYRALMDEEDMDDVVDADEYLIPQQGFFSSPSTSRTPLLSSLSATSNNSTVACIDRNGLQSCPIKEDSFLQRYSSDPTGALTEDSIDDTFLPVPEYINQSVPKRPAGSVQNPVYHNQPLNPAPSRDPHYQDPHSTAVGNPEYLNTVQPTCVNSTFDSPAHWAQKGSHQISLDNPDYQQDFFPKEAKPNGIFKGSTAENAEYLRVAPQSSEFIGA

Row | Structure (SMILES) | IC50 (BMX) [nM] | IC50 (EGFR T790M) [nM] | covalent modification of ErbB4 (mass spectrometry) (Erbb4 kinase domain) | IC50 (BTK [1]) [nM] | covalent modification of JAK3 (Cys909, peptide LVMEYLPSGCLR) by mass spectrometry (JAK3 kinase) | % inhibition ankle swelling (PG-PS arthritis model) [%] | % Inhibition IgG3 (1:100) [2] [%] | % Inhibition IgM (1:1600) [2] [%] | covalent modification of BTK (mass spectrometry) (BTK [3]) | time BTK protein remains occupied after compound removal (BTK [4]) | % inhibition foot pad swelling [5] [%]
1 | Cc1cccc(Nc2nc(Nc3cccc(NC(=O)/C=C/CN(C)C)c3)ncc2F)c1 [Compound I-4, (E)-4-(dimethylamino)-N-(3-(5-fluoro-4-(m-tolylamino)pyrimidin-2-ylamino)phenyl)but-2-enamide] | < 10 | < 10 | covalent modification | < 10 |  |  |  |  |  |  | 
2 | C=CC(=O)Nc1cccc(Nc2nc(Nc3ccccc3)ncc2C)c1 [Compound I-7, N-(3-(5-methyl-2-(phenylamino)pyrimidin-4-ylamino)phenyl) acrylamide] | < 10 |  |  | < 10 | not entirely complete; also recorded: covalent modification | 77.5 | 57 | 48 | complete modification; also recorded: covalent modification | over 8 hours | 83
